Assay results published in ChEMBL document CHEMBL1201862, “PubChem BioAssay data set” (2004).
Active and inactive are the calls of the source.

Key:
[1] = molecular target: Melanin-concentrating hormone receptor 1 (Homo sapiens, UniProt Q99705); assay: Late-stage fluorescence-based counterscreen for antagonists of the G-protein coupled receptor 7 (GPR7): cell-based dose response assay to identify antagonists of the melanin-concentrating hormone receptor 1 (MCHR1). [Related pubchem assays (depositor defined):AID1861, AID1880, AID1952, AID2148, AID2251, AID2257, AID485339]; assay type: functional;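 note: stimulated with 30 nM MCH peptide agonist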
Chain of Melanin-concentrating hormone receptor 1 (Q99705 whole entry): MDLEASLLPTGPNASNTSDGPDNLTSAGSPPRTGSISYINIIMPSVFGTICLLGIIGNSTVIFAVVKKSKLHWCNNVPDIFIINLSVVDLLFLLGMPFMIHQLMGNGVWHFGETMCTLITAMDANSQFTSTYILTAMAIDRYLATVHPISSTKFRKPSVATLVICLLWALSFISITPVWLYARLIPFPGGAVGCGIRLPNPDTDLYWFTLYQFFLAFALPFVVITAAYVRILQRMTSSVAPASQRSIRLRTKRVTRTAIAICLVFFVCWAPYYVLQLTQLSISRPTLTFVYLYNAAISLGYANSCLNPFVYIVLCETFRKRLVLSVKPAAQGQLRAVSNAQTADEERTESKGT

[2] = molecular target: T1, Neuropeptides B/W receptor type 1 (Homo sapiens, UniProt P48145); assay: human NPBW1 receptor blockade, IC50 – cell-based, fluorescence, dose response, late-stage follow-up (AID 463251); assay type: functional
T1 sequence (P48145 whole entry): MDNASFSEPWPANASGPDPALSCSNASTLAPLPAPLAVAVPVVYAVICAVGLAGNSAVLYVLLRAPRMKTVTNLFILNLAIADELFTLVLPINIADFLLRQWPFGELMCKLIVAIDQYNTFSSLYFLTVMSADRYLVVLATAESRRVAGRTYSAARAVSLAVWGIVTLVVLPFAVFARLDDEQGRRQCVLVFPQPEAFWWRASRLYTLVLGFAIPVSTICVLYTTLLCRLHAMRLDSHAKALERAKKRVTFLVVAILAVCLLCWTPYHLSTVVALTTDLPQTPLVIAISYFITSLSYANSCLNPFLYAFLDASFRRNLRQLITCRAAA

[3] = molecular target: Envelope glycoprotein gp160 (Human immunodeficiency virus 1, UniProt Q6QLK5); assay: cell-free HIV fusion peptide-binding blockers – biochemical, uHTS, fluorescence dequenching, […] (AID 1986)
Chain of Envelope glycoprotein gp160 (Q6QLK5 whole entry, the tested form may be a part): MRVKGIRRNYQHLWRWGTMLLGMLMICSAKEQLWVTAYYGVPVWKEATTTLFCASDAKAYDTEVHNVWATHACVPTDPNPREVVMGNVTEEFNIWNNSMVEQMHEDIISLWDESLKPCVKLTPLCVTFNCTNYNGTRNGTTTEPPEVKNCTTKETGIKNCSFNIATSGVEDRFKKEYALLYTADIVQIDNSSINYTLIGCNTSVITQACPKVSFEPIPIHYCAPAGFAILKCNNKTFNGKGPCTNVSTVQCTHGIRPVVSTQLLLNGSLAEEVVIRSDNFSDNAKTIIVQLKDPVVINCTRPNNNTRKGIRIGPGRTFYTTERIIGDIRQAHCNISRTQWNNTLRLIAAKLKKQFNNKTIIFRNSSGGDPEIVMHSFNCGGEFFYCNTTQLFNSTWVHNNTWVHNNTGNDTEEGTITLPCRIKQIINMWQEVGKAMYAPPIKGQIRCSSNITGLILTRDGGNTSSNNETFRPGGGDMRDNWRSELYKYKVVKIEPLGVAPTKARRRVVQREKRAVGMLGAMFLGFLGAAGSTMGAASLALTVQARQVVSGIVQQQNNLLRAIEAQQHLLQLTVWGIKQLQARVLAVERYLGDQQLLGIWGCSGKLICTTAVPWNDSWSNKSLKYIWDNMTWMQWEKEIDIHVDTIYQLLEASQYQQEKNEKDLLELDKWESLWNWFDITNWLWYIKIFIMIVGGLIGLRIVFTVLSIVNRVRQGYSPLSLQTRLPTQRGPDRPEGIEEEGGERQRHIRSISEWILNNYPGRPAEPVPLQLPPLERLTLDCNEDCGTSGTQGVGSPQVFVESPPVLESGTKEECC

[4] = Luminescence Cell-Based Dose Confirmation HTS to Identify Activators of 5'UTR Stem-Loop Driven Alpha-Synuclein mRNA Translation in H4 Neuroglioblastoma Cells. [Related pubchem assays: 1829 (Project Summary), 1814 (Primary HTS)]; assay type: functional
[5] = Luminescence Cell-Based Dose Response HTS to Identify Activators of Luciferase Translation or Activity in H4 […] Cells. [Related pubchem assays: 1829 (Project Summary), 1814 (Primary HTS)]; assay type: functional
H4 = assay: Luminescence Cell-Based Dose Response HTS to Identify Activators of 5'UTR Stem-Loop Driven Prion Protein mRNA Translation in H4 Neuroglioblastoma Cells. [Related pubchem assays: 1829 (Project Summary), 1814 (Primary HTS)]; assay type: functional; settings: Homo sapiens
[6] = molecular target: T2, Corticotropin-releasing factor receptor 2/Corticotropin-releasing factor-binding protein (Homo sapiens, UniProt P24387+Q13324); assay: Dose Response confirmation of uHTS hits for small molecule antagonists of the CRF-binding protein and CRF-R2 receptor complex.; assay type: functional; settings: read-out: IC50_Mean
T2 sequence (Q13324 whole entry): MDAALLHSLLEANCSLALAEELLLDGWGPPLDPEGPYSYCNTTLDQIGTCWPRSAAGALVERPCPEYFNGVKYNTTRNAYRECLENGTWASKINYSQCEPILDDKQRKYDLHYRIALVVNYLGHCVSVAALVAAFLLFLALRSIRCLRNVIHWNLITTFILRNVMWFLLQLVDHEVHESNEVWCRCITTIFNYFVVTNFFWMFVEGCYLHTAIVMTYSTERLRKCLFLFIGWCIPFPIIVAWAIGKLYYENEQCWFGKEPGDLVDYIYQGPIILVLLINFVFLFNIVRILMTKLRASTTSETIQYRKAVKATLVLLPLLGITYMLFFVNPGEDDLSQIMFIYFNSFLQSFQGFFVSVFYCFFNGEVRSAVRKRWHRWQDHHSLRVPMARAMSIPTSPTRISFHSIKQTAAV
T2 sequence (P24387 whole entry): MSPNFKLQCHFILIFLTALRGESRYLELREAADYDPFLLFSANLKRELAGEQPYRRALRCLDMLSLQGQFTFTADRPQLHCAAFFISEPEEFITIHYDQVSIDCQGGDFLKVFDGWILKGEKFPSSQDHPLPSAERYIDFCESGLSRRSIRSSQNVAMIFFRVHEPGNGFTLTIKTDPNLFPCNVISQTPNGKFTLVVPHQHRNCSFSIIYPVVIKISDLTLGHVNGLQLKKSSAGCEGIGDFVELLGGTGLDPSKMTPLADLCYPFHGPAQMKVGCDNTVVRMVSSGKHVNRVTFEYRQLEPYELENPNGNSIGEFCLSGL

[7] = molecular target: T2, Corticotropin-releasing factor receptor 2/Corticotropin-releasing factor-binding protein; assay: activators of CRF receptor 2 with binding protein – uHTS hits, confirmation (AID 602473); assay type: functional; settings: read-out: EC50_Mean
[8] = blockers of CRF-binding protein–CRF-R2 complex – cell-based, uHTS hits, 384-well, dose response (AID 651639); assay type: functional, Homo sapiens; settings: read-out: IC50_Mean
[9] = NIH-3T3 fibroblast cytotoxicity, dose response, cytotoxicity control, cell-based, fluorescence, Alamar Blue, secondary assay (AID 2327); assay type: functional;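 note: NIH-3T3 mouse fibroblasts cultured with fluconazole at 8 µg/mL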
Bcl-2-like protein 10 = molecular target: T3, Bcl-2-like protein 10 (Homo sapiens, UniProt Q9HD36); assay: Bcl-B/TR3 peptide binding disruption – biochemical, fluorescence polarization, FITC-TR3 peptide, selectivity assay for Bfl-1 inhibitor project, primary screen (AID 748);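 note: fluorescence polarization from a fluorescein-labelled TR3 peptide binding purified Bcl-B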
T3 sequence (Q9HD36 whole entry): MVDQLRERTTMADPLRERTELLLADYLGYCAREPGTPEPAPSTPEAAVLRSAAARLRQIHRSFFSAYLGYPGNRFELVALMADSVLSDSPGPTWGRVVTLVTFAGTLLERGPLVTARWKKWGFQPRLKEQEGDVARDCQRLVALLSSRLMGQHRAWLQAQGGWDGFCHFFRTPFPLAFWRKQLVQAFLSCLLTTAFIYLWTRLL

[10] = fluconazole-exposed Candida albicans growth modulators – fluorescence, retest, confirmation (AID 2467); assay type: functional, cell-based
[11] = molecular target: T4, Histone-lysine N-methyltransferase NSD2 (Homo sapiens, UniProt O96028); assay type: biochemical
T4 sequence (O96028 whole entry): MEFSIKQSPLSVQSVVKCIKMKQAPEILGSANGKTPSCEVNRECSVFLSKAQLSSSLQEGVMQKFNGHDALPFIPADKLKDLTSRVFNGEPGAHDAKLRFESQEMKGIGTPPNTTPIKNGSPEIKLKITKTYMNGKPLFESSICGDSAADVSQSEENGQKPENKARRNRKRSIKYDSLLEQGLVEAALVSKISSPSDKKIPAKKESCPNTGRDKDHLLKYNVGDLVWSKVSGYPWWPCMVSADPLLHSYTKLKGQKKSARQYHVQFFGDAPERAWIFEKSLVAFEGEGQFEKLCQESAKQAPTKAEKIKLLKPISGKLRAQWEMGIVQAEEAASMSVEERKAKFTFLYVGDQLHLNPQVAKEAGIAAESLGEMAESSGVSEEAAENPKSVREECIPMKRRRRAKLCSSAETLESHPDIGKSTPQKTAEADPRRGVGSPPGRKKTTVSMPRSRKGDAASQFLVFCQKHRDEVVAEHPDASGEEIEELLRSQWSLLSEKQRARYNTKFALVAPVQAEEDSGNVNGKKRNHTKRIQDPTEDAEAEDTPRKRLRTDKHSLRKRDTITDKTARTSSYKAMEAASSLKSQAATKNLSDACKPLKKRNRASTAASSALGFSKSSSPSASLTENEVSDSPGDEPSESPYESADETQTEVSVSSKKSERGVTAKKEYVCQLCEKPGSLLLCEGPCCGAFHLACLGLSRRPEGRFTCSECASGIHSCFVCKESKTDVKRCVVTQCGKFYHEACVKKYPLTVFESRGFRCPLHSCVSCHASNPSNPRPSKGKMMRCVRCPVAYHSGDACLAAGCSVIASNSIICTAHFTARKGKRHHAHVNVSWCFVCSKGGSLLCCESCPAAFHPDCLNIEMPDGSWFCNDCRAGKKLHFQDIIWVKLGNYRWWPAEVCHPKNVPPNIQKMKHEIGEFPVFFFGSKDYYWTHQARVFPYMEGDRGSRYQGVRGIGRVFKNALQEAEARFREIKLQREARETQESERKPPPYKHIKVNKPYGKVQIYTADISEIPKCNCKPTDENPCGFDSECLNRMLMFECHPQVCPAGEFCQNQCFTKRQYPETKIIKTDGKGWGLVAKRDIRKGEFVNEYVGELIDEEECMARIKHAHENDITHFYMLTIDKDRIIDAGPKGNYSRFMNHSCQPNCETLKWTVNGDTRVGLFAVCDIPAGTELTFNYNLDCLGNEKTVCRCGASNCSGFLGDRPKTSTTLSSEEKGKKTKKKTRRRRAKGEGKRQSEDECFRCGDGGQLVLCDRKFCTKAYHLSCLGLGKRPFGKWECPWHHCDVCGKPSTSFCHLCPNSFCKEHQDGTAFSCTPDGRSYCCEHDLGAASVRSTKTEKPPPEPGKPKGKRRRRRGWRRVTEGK

[12] = HGIII-sPLA2 enzyme inhibition potency – biochemical, QFRET, IC50, dose response (AID 743457);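 note: green fluorescence rise as the enzyme cleaves BODIPY PC-A2 in liposomes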
Protein Tat = molecular target: T5, Protein Tat (Human immunodeficiency virus type 1 group M subtype B (isolate HXB2)(HIV-1), UniProt P04608); assay type: functional;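 note: tat binding to TAR RNA read out by fluorescence polarization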
T5 sequence (P04608 whole entry): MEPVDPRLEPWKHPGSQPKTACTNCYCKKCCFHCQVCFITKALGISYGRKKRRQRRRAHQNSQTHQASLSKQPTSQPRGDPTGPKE

[13] = viability loss in THP-1 monocytes – THP-1 cells, cytotoxicity control for Vif-APOBEC3G degradation inhibitor project, dose response (AID 1117359); assay type: functional; settings: THP-1
[14] = molecular target: T6, Voltage-gated N-type calcium channel alpha-1B subunit/Amyloid beta A4 precursor protein-binding family A member 1 (Homo sapiens, UniProt Q00975+Q02410); assay: disruptors of Mint-PDZ/N-type channel peptide interaction – biochemical, HTRF, set 2, SAR follow-up (AID 434980); assay type: functional
T6 sequence (Q00975 whole entry): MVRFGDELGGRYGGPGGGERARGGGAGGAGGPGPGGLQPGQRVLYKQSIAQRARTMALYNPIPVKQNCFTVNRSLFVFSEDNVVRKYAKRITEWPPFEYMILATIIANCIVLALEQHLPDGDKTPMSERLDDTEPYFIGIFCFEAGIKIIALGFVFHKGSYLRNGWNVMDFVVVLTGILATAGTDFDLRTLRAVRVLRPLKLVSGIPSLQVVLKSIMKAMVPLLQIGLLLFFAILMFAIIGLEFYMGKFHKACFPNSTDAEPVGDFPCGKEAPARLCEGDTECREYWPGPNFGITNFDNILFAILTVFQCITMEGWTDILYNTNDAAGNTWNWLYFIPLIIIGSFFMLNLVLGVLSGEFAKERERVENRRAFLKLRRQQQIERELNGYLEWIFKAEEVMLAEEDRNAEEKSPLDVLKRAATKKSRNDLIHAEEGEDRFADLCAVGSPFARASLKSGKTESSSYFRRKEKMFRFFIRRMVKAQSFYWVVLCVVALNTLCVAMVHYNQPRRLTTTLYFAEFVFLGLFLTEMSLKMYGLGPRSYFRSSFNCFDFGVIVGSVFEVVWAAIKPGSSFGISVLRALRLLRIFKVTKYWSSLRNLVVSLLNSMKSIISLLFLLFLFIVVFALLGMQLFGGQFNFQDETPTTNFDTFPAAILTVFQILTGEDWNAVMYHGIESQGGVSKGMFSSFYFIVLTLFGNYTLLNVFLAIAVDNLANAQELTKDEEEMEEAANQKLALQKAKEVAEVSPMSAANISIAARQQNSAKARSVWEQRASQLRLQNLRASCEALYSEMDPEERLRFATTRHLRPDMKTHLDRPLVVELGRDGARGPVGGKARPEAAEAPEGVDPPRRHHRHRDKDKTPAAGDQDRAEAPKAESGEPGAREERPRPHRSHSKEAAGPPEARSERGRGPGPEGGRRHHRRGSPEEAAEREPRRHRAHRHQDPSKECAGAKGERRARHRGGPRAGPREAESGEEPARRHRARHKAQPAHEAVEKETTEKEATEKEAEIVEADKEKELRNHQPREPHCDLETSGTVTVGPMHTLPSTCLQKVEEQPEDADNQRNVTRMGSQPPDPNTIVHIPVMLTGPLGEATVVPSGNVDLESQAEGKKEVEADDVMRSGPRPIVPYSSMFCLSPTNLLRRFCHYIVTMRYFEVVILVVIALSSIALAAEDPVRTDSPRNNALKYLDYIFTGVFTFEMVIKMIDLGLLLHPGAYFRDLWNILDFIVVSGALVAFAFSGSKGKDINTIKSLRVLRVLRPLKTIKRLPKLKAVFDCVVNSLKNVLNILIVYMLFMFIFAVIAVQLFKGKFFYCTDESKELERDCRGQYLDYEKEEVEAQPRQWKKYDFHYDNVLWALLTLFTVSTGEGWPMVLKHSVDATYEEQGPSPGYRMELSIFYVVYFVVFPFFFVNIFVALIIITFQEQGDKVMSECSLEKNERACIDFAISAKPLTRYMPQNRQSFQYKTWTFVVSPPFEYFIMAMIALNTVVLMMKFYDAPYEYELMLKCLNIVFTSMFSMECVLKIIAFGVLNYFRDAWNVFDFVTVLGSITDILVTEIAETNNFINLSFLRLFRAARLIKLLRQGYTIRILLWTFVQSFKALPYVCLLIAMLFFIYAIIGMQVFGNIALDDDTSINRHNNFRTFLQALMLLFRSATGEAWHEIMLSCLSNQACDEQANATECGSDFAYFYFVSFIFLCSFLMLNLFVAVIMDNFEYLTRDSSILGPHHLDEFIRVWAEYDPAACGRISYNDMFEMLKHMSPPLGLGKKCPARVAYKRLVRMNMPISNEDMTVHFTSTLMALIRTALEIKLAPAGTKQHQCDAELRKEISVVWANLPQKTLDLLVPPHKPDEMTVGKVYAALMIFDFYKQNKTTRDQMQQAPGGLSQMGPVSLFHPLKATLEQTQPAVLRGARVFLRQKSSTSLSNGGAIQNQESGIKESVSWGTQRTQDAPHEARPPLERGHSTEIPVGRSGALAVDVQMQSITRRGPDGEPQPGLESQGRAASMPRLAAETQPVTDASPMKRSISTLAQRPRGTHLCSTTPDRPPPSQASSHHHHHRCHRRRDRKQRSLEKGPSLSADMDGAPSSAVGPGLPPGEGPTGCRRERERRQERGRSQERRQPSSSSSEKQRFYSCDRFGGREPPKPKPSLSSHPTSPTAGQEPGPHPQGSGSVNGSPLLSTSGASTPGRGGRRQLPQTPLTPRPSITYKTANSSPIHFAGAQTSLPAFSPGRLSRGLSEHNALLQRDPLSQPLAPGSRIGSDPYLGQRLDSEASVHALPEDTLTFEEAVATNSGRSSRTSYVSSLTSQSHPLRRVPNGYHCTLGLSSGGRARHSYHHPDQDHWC
T6 sequence (Q02410 whole entry): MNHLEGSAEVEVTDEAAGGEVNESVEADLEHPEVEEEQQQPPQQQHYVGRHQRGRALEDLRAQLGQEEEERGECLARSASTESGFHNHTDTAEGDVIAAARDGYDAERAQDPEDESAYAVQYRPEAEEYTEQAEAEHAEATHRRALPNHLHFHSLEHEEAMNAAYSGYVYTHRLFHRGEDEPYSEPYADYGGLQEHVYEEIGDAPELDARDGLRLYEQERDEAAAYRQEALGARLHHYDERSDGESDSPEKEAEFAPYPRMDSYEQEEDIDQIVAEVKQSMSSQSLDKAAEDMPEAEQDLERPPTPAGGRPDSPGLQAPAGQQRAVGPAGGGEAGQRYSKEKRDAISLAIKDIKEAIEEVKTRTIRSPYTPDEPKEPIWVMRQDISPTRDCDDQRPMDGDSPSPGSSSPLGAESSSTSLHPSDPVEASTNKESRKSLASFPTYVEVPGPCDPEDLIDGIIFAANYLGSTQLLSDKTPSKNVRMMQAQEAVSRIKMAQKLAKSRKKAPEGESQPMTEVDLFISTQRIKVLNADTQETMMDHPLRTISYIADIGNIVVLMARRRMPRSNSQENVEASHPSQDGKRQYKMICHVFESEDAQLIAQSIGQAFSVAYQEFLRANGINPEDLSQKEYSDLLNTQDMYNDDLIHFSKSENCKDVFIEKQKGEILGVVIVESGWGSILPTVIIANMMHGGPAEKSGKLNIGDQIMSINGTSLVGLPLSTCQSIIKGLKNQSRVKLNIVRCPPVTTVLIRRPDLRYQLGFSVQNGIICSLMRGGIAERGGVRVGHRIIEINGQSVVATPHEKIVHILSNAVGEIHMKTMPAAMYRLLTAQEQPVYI

[15] = molecular target: T6, Voltage-gated N-type calcium channel alpha-1B subunit/Amyloid beta A4 precursor protein-binding family A member 1; assay: disruptors of Mint-PDZ/N-type channel peptide interaction – biochemical, HTRF, SAR follow-up (AID 2489); assay type: functional
[16] = molecular target: NACHT, LRR and PYD domains-containing protein 3 (Homo sapiens, UniProt Q96P20); assay: NALP3 inhibitors in yeast, dose response, luminescent (AID 488799); assay type: functional
[17] = molecular target: T7, Mannose-6-phosphate isomerase (Homo sapiens, UniProt P34949); assay: phosphomannose isomerase inhibition – biochemical, fluorescence intensity, confirmation (AID 1535)
T7 sequence (P34949 whole entry): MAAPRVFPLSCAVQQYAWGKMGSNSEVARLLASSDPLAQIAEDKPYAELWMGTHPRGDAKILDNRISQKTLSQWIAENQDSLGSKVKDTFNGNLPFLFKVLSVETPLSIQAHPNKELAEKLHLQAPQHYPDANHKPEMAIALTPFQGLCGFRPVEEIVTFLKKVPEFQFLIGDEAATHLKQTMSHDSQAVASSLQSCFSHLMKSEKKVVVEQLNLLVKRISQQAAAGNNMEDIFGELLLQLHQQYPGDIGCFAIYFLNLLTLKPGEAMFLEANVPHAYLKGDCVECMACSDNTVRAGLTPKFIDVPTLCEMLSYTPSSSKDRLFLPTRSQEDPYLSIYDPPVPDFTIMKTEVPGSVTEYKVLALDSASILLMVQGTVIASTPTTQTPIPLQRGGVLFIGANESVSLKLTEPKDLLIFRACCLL

Phosphomannomutase 2 = Phosphomannomutase 2 (Homo sapiens, UniProt O15305); assay: Counter screen SAR assay for PMM2 inhibitors via a fluorescence intensity assay. [Related pubchem assays (depositor defined):AID1545, AID1574]
Chain of Phosphomannomutase 2 (O15305 whole entry): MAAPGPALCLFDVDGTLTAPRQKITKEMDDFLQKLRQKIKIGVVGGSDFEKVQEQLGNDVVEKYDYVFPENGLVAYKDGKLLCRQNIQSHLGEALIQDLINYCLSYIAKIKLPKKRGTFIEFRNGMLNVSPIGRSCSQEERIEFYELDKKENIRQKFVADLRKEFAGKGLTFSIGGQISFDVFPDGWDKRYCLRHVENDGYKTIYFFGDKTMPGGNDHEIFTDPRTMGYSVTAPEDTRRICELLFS

[18] = molecular target: Phosphoethanolamine/phosphocholine phosphatase (Homo sapiens, UniProt Q8TCT1); assay: SAR assay for compounds that inhibit PHOSPHO1. [Related pubchem assays (depositor defined):AID1545, AID1565, AID1574]
Chain of Phosphoethanolamine/phosphocholine phosphatase (Q8TCT1 whole entry): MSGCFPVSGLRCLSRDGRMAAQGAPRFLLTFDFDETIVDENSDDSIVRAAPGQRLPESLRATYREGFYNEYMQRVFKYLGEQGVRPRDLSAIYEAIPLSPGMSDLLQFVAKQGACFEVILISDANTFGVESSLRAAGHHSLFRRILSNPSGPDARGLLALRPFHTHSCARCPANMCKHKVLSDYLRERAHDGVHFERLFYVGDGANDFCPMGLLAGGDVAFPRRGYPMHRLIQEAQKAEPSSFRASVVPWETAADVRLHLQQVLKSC

[19] = molecular target: Eukaryotic translation initiation factor 4E (Mus musculus, UniProt P63073); assay: blockers of eIF4G binding by eIF4E – biochemical, TR-FRET, dose response (AID 855); assay type: functional;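 note: potency for disrupting eIF4E binding to eIF4GI seen as loss of FRET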
Chain of Eukaryotic translation initiation factor 4E (P63073 whole entry): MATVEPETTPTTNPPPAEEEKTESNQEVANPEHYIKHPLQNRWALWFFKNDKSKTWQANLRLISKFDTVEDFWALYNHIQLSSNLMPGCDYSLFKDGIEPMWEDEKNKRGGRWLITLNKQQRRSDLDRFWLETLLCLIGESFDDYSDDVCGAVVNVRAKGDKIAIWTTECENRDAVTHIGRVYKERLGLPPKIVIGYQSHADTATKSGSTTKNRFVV

For `O=C(C1CCCCN1Cc1cccc(Cl)c1Cl)N1CCN(c2ccc([N+](=O)[O-])cc2)CC1` (stereo not drawn), the IC50 [1] was 3.3 µM (active) and the IC50 [2] was 4.4 µM (active).

For `CCS(=O)(=O)C1=NSC2=NC(=O)/C(=C\c3cc(C)n(-c4cccc(OC)c4)c3C)C(=N)N21`, the IC50 [3] was > 99 µM (inactive), the EC50 [4] was > 120 µM (not active) and the EC50 [5] was > 120 µM (not active). For the same molecule, the EC50 (H4) was > 120 µM (not active), the IC50 [6] was 5.1 µM (active) and the EC50 [7] was > 53 µM (inactive). The IC50 [8] was 6.75 µM (active).

For `N#C/C(C(N)=O)=c1/ccc2c(c1)N1C3=C(CCCC3)CC3CCCCC31N=2` (stereo not drawn), the EC50 [9] was 8.74 µM (inconclusive), the IC50 (Bcl-2-like protein 10) was > 50 µM (inactive) and the EC50 [10] was 4.01 µM (active). For the same molecule, the AC50 [11] was 10.2 µM (active), the IC50 [12] was 72.7 µM (inactive) and the IC50 (Protein Tat) was > 100 µM (inconclusive). The CC50 [13] was 33.5 µM (active).

With `O=C(NC1CCC(c2ccccc2)CC1)c1cc(-c2ccco2)nc2ccccc12` (stereo not drawn) the IC50 [14] was 25.5 µM (active) and the IC50 [15] was 5.59 µM (active).

With `c1ccc(C2Nc3ccccc3C3OCCCC23)cc1` (stereo not drawn) the IC50 [16] was 7.36 µM (active).

In the case of `O=c1c2c([N+](=O)[O-])cc([N+](=O)[O-])cc2sn1-c1ccc(Br)cc1`, the IC50 [17] was 12.2 µM (active), the IC50 (Phosphomannomutase 2) was 10.8 µM (active) and the IC50 [18] was 0.0725 µM (active). The IC50 [19] was 8.14 µM (active).
